In US4599362A, “2-aryl-ethyl ether derivatives and insecticidal and acaricidal agents containing said derivatives” (priority 1980, dated 1986):
Where two headings read alike, the source gives them in different places.

Experiments:
[1] = tested on: green peach aphids; test: Test 5: Effect on green peach Aphid; assay type: in vivo; details: Myzus persicae, 24 hours, mortality class, read-out: Insecticidal Activity
Protocol: (§1) To a mixture of 20 parts of the compound of the present invention and 20 parts of Sorpol SM-200 (registered trademark for the product supplied by Toho Chemical Industrial Co., Ltd.) was added 60 parts of xylol, and the mixture was sufficiently blended. The obtained emulsifiable concentrate was diluted at a predetermined concentration with distilled water, and the obtained dilution was used.
Seedlings (having 3 to 4 leaves) of an eggplant grown on a pot were inoculated with green peach aphids and the insects were allowed to grow. The number of the insects was counted. A chemical dilution having a concentration of 100 ppm, prepared in the same manner as described in Test 1, was applied with a spray gun at a rate of 10 ml per pot. Then, the pot was placed in a glass green house. After 24 hours, the number of living insects was counted and the mortality was calculated.
The test was made on three pots, and the average value was calculated. In Table 6, mark "A" indicates a mortality higher than 95%, mark "B" indicates a mortality of 80 to 95%, mark "C" indicates a mortality of 50 to 80%, and mark "D" indicates a mortality lower than 50%.

[2] = tested on: two-spotted spider mite; test: Test 6: Effect on Two-Spotted Spider mite adults; assay type: in vivo; details: Tetranychus urticae; 500 ppm; adults; 24 hours; read-out: Mortality (%)
Protocol: as §1
A kidney bean leaf disc perforated with a cork borer (15 mm in diameter) was placed on water-impreganated absorbent cotton (2 cm×2 cm), and 10 adults of two-spotted spider mite were set free. A chemical dilution having a concentration of 500 ppm was applied with an applicator in an amount of 3 ml.
The leaf disc-placed absorbent cotton was placed in a thermostat chamber maintained at 25° C. After 24 hours, the number of killed adults was counted and the mortality was calculated. The test was made on three leaf discs and the average value was calculated.

[3] = tested on: Second-instar and fifth-instar larvae of tobacco cutworm; test: Test 2: Tobacco Cutworm Larva Dipping Test; assay type: in vivo
Protocol: as §1
A dilution having a chemical concentration of 100 or 20 ppm was prepared in the same manner as described in Test 1.
Second-instar and fifth-instar larvae of tobacco cutworm were dipped in the dilution for 5 seconds, and the excessive dilution was removed by a filter paper. Then, the larvae were set free in a plastic cup and an artificial diet was supplied thereto. The cup was allowed to stand still in a thermostat chamber maintained at 25° C. After 24 hours, the numbers of the killed and living larvae were counted and the mortality was calculated. The test was made on three cups and the result was expressed by an average value.

[4] = tested on: third-instar larvae of diamond back moth; test: Test 4: Effect on Diamond Back Moth; assay type: in vivo; details: Plutella xylostella, 24 hours
Protocol: as §1
Cabbage leaves were spread in a plastic cup, and 10 third-instar larvae of diamond back moth were set free in the cup.
A chemical dilution having a concentration of 100 or 20 ppm, prepared in the same manner as described in Test 1, was applied from an applicator at a rate of 3 ml per cup.
After scattering of the chemical dilution, the cup was covered, and after 24 hours, the numbers of killed and living larvae were counted and the mortality was calculated. The test was made on three cups and the average value was calculated.

[5] = tested on: resistant green rice leafhopper (collected at Nakagawara); test: Test 3: Effect on Resistant Green Rice Leafhopper; assay type: in vivo, Nephotettix cincticeps Uhler; details: Nephotettix cincticeps, 24 h, read-out: Mortality (%) Green Rice Leafhopper Collected at Nakagawara
Protocol: as §1
(§2) Seedlings (having 2 to 3 leaves) of paddy rice were hydroponically cultured in a pot having a diameter of 5 cm. A chemical dilution having a concentration of 100 or 20 ppm, prepared in the same manner as described in Test 1, was applied with a sprayer at a rate of 3 ml per pot. The treated seedlings were air-dried and covered with a metal net cylinder, and female adults of resistant green rice leafhopper (collected at Nakagawara) and sensitive green rice leafhopper (collected at Chigasaki) were set, respectively, free in the pot at a density of 10 adults per pot. After of 24 hours, the numbers of killed and living adults were counted and the mortality was calculated. The test was made on three pots and the average value was calculated.

[6] = tested on: German cockroach; test: Test 7: Effect on German Cockroach; assay type: in vivo; details: Blattella germanica, male adults, 24 hours, agonized and killed; for mortality at 10 mg/m2: 10 mg/m^2; for mortality at 50 mg/m2: 50 mg/m^2
Protocol: The bottom face of a high Petri dish having a diameter of 9 cm and a height of 9 cm was treated with 50 or 10 mg/m^2 of a test compound and the dish was air-dried. In order to prevent the adults from escaping from the dish, the inner wall of the dish was treated with butter. Then, 10 male adults of German cockroach were set free in each dish, and the dish was placed in a thermostat chamber maintained at 25° C. After 24 hours, the number of agonized and killed adults was counted. The test was made on two dishes and the average value was calculated.

[7] = tested on: sensitive green rice leafhopper (collected at Chigasaki); test: Test 3: Effect on Sensitive Green Rice Leafhopper; assay type: in vivo; details: Nephotettix cincticeps, female adults, 24 hours
Protocol: as §1, §2

[8] = Test 9: Toxicity Test (acute oral, mice); details: mouse, in vivo, po
Protocol: In the fish toxicity test, the test compound was dissolved in acetone to form a 1% solution, and a predetermined amount of the solution was used. In the mouse toxicity test, the test compound of the present invention was dissolved or suspended in corn oil, and a predetermined amount of the solution or suspension was used.
A predetermined amount of a solution or suspension of a test compound in corn oil was orally administered to male mice having a body weight of 19 to 23 g (0.2 ml per 10 g of the body weight). After 7 days, the number of killed mice was counted and the influences on the mice were examined.

[9] = 20 ppm, second-instar larvae, 24 hours, read-out: Mortality (%) Second-Instar Larvae
[10] = 100 ppm, second-instar larvae, 24 hours, read-out: Mortality (%) Second-Instar Larvae
[11] = topical, 24 h, read-out: Mortality (%) Fifth-Instar Larvae

Compound | mortality at 100 ppm [1] [%] | mortality at 500 ppm [2] [%] | mortality at 20 ppm [3, 9] [%] | mortality at 100 ppm [3, 10] [%] | mortality at 20 ppm [3, 11] [%] | mortality at 100 ppm [3, 11] [%] | mortality at 20 ppm [4] [%] | mortality at 100 ppm [4] [%] | mortality at 20 ppm [5] [%] | mortality at 100 ppm [5] [%] | mortality at 10 mg/m2 [6] [%] | mortality at 50 mg/m2 [6] [%] | mortality at 20 ppm [7] [%] | mortality at 100 ppm [7] [%] | LD50 at 168 h [8] [mg/kg]
CC(C)C(C)(COCc1ccc(F)c(Oc2ccccc2)c1)c1ccc(Cl)cc1 (stereo not shown) [Compound 25, 3-phenoxy-4-fluorobenzyl 2-(4-chlorophenyl)-2,3-dimethylbutyl ether] | 80 to 95 |  |  |  |  |  |  |  |  |  |  |  |  |  | 
CC(C)(COCc1ccc(F)c(Oc2ccccc2)c1)c1ccc(OC(F)F)cc1 [Compound 21, 3-Phenoxy-4-fluorobenzyl 2-(4-difluoromethoxyphenyl)-2-methylpropyl ether] | > 95 | 100 | 100 | 100 | 100 | 100 | 100 | 100 | 100 | 100 | 100 | 100 | 100 | 100 | 
CC(C)COc1ccc(C(C)(C)COCc2ccc(F)c(Oc3ccccc3)c2)cc1 [Compound 45] | > 95 |  |  |  |  |  | 80 | 100 | 100 | 100 | 90 | 100 | 100 | 100 | 
CCOc1ccc(C(C)(C)COCc2ccc(F)c(Oc3ccccc3)c2)cc1C [Compound 67] | > 95 | 100 | 100 | 100 | 100 | 100 | 100 | 100 | 100 | 100 | 100 | 100 | 100 | 100 | 
CCOCCOc1ccc(C(C)(C)COCc2ccc(F)c(Oc3ccccc3)c2)cc1 [Compound 39] |  | 100 |  |  |  |  |  |  |  |  |  |  |  |  | > 500
CCSc1ccc(C(C)(C)COCc2ccc(F)c(Oc3ccccc3)c2)cc1 [Compound 42, 3-Phenoxy-4-fluorobenzyl 2-(4-ethylthiophenyl)-2-methylpropyl ether] | > 95 | 100 |  |  |  |  | 100 | 100 |  |  |  |  |  |  | 
CC(C)C(COCc1ccc(F)c(Oc2ccccc2)c1)c1ccc(Cl)cc1 (stereo not shown) [Compound 8, 3-Phenoxy-4-fluorobenzyl 2-(4-chlorophenyl)-3-methylbutyl ether] |  |  |  |  |  |  |  |  | 100 | 100 |  |  | 100 | 100 | > 500
CCC(COCc1ccc(F)c(Oc2cccc(Cl)c2)c1)c1ccc(Cl)cc1 (stereo not shown) [Compound 34, 3-(3-Chlorophenoxy)-4-fluorobenzyl 2-(4-chlorophenyl)-butyl ether] | 80 to 95 |  |  |  |  |  |  |  |  |  |  |  |  |  | 
CCOc1ccc(C(C)(C)COCc2ccc(F)c(Oc3ccccc3)c2)cc1OC [Compound 64] | > 95 | 100 |  |  |  |  |  |  | 100 | 100 | 100 | 100 | 100 | 100 | 
Cc1ccc2cc(C(C)(C)COCc3ccc(F)c(Oc4ccccc4)c3)ccc2c1 [Compound 44, 3-Phenoxy-4-fluorobenzyl 2-(6-methyl-2-naphthyl)-2-methylpropyl ether] | > 95 | 95 |  |  |  |  |  |  | 100 | 100 | 100 | 100 | 100 | 100 | 
CCOc1ccc(C(C)(C)COCc2ccc(F)c(Oc3ccccc3)c2)cc1Cl [Compound 59] |  |  | 100 | 100 | 100 | 100 | 100 | 100 | 100 | 100 | 100 | 100 | 100 | 100 | > 500
CC(C)(COCc1ccc(F)c(Oc2ccccc2)c1)c1ccc(F)cc1 [Compound 29, 3-Phenoxy-4-fluorobenzyl 2-(4-fluorophenyl)-2-methylpropyl ether] |  | 100 | 100 | 100 | 100 | 100 | 100 | 100 | 100 | 100 | 100 | 100 | 100 | 100 | > 500
CCOc1ccc(C(C)COCc2ccc(F)c(Oc3ccccc3)c2)cc1 (stereo not shown) [Compound 43] | > 95 |  |  |  |  |  |  |  | 100 | 100 | 100 | 100 | 100 | 100 | 
COc1ccc(C(C)(C)COCc2ccc(F)c(Oc3ccccc3)c2)cc1OC [Compound 56] |  | 100 |  |  |  |  |  |  |  |  |  |  |  |  | > 500
COc1ccc(Oc2cc(COCC(C)(C)c3ccc(Cl)cc3)ccc2F)cc1 [Compound 13, 3-(4-Methoxyphenoxy)-4-fluorobenzyl 2-(4-chlorophenyl)-2-methylpropyl ether] |  |  |  |  |  |  |  |  | 70 | 100 |  |  | 50 | 100 | > 500
CC(C)Oc1ccc(C(C)(C)COCc2ccc(F)c(Oc3ccccc3)c2)cc1 [Compound 41] | > 95 | 90 | 100 | 100 | 100 | 100 | 100 | 100 | 100 | 100 | 100 | 100 | 100 | 100 | 
